According to patent US9260499B2, “Tumor antigen peptide and use thereof” (SAPPORO MEDICAL UNIVERSITY, priority 2008, dated 2016):
Read-outs that look alike come from different tables or passages of the source.

What was measured:
HLA-A0201 = HLA-A0201 (Homo sapiens, UniProt P04439, D140Y/D185E/D98H/E176V/E277Q/G131W/G231S/I119V/I121R/I166T/I218V/L300P/L318F/N151K/N90K/P208A/P217A/Q86G/Q94H/R138H/R169H/T345S); assay: HLA class I stabilization assay, binding affinity to HLA-A0201
[1] = test system: lymphocytes from PBF-positive patients with osteosarcoma; assay: Frequency analysis of antigenic peptide-specific CTLs (LD/MLPC, HLA-A0201/PBF tetramer staining); assay type: cell-based, human
Protocol: Lymphocytes from five PBF-positive patients with osteosarcoma were subjected to ,mixed lymphocyte peptide culture under conditions of limiting dilution (limiting dilution/mixed lymphocyte peptide culture; LD/MLPC) to induce peptide-specific CTLs (Cancer Sci., 2008, 99:368-375, which is incorporated herein by reference). Regarding two patients: Patient Nos. 1 ,and 2, 50 ml of peripheral blood was collected to isolate peripheral blood mononuclear cells (PBMCs). PBMCs were cultured for 60 minutes at room temperature in AIM-V medium (Invitrogen) containing 1% human serum and supplemented with 50 μg/ml of the peptide shown in SEQ ID NO:4. PBMCs which were pulsed with the peptide were plated at 2×10^5 cells/200 μl/well on a U-bottomed 96-well microtiter plate and cultured in AIM-V medium containing 10% human serum, 20 U/ml IL-2, and 10 ng/ml IL-7. Seven days after the culture was started, half of the cultured medium in each well was replaced with AIM-V medium containing IL-2, IL-7, and the peptide shown in SEQ ID NO:4 in order to perform the second stimulation. Cells on 14 to 21 days after the culture was started were used for frequency analysis with a tetramer.
Regarding three patients: Patient Nos. 3, 4, and 5, CD8-positive cells were isolated from PBMCs using magnetic anti-CD8 microbeads (Miltenyi Biotec). CD8-positive cells were pulsed for 60 minutes with the peptide shown in SEQ ID NO:4 and inactivated by radiation. 1.0×10^5 to 2.1×10^5 CD8-positive cells/well were cultured on a 48-well microtiter plate using AIM-V medium containing 10% human serum, 20 U/ml IL-2, and 10 ng/ml IL-7, together with 2×10^5 to 5×10^5 cells/well of irradiated, peptide-pulsed CD8-positive cells. After 7 days of the culture, the irradiated peptide-pulsed CD8-positive cells were added as described above, in order to perform the second stimulation. Cells on 13 to 23 days after the culture was started were used for frequency analysis with a tetramer. A PE-labeled HLA-A0201/PBF tetramer (MBL) which was prepared using the peptide shown in SEQ ID NO:4 was used for the analysis.
An FITC-labeled HLA-A0201/HIV tetramer (MBL) which was prepared using an HIV-derived peptide was used as negative control. Some of the lymphocytes which were cultured using the LD/MLPC method were cultured at room temperature for 15 minutes with the PE-labeled HLA-A0201/PBF tetramer or with the FITC-labeled HLA-A0201/HIV tetramer (10 nM each, in 25 μl of PBS), followed by staining. Further, a PE-Cy5-labeled anti-CD8 antibody ,eBioscience) was added and incubated for 15 minutes, followed by staining. Then, cells were washed twice with PBS, fixed in 0.5% formalin, and analyzed in a flow cytometer FACScan. Living cells which were stained both with the PE-Cy5-labeled anti-CD8 antibody and with the PE-labeled HLA-A0201/PBF tetramer were considered to be tetramer-positive and peptide-specific CTLs. The frequency of CTLs specific for a peptide shown in SEQ ID ,NO:4 was determined using the following equation: Frequency=the number of tetramer-positive wells/(the total number of the wells examined×the number of CD8-positive cells per well at the start of LD/MLPC). Of the five patients, three patients: Patient Nos. […], had frequencies of 5×10^−6, 2×10^−7, and 5×10^−7, respectively.

Row | Substance | % MFI increase±standard deviation (SD) (HLA-A0201) [%] | Frequency of CTLs specific for the peptide ([1]; Patient No. 1) | Number of tetramer-positive wells ([1]; Patient No. 1, PBMCs, 18 wells tested, 200,000 initial cells per well, 25% CD8) | Frequency of CTLs specific for the peptide ([1]; Patient No. 2) | Number of tetramer-positive wells ([1]; Patient No. 2, PBMCs, 46 wells tested, 200,000 initial cells per well, 24% CD8) | Frequency of CTLs specific for the peptide ([1]; Patient No. 3) | Number of tetramer-positive wells ([1]; Patient No. 3, CD8-positive cells, 56 wells tested, 210,000 initial cells per well, 99% CD8) | Frequency of CTLs specific for the peptide ([1]; Patient No. 4) | Number of tetramer-positive wells ([1]; Patient No. 4, CD8-positive cells, 36 wells tested, 150,000 initial cells per well, 99% CD8) | Frequency of CTLs specific for the peptide ([1]; Patient No. 5) | Number of tetramer-positive wells ([1]; Patient No. 5, CD8-positive cells, 103 wells tested, 100,000 initial cells per well, 99% CD8) | % MFI increase±standard deviation (SD) (HLA-A0201; triplicate, FITC-labeled anti-HLA-A2 antibody BB7.2, flow cytometry) [%]
1 | RGYVYQGL [SEQ ID NO:6, reference compound] | 5.6±8.2 | – | – | – | – | – | – | – | – | – | – | –
2 | SEQ ID NO:4: fragment peptide of tumor antigen protein PBF (papillomavirus binding factor) binding to HLA-A2 antigen; synthesized by the Fmoc method (ALPSFQIPV) | – | <1 × 10^−6 | 0 | 5×10^−6 | 10 | 2×10^−7 | 2 | 5×10^−7 | 3 | <1 × 10^−7 | 0 | 74.5±6.6
